Data as given in paper PMC8470702 (Pharmaceuticals, 2021).
“And” between values parts separate entries of the source, which are not always exact repeats. Equal entries are not always repeated.

What was measured:
Daudi cells = experiment: Cytotoxicity assay (MTT), 72 h; format: cell-based, human; settings: for IC50: Homo sapiens, Daudi, 72 h of treatment, MTT; for Selectivity index Daudi: IC50 of normal (BALB/3T3) vs. cancer cells (Daudi)
Protocol: (§1) Then, the tested compounds were diluted in culture medium (RPMI1640 + OptiMEM) to reach the final concentrations. Then, cells were treated for 72 h with derivatives at concentrations of […] (100 μL of each concentration per well), or with culture medium alone as a cells control or medium control.
(§2) Each compound in each concentration was tested in triplicate in a single experiment, which was repeated 3–5 times.
(§3) MTT: 20 µL MTT solution (5 mg/mL of PBS, Merck) was added to wells and plates were placed in an incubator. […] The optical density of individual samples was read at a wavelength of 570 nm using a plate reader (Synergy H4 Hybrid Reader, BioTek).

MV4-11 cells = experiment: Cytotoxicity assay (MTT), 72 h; format: cell-based, human; settings: for IC50: Homo sapiens, MV4-11, 72 h of treatment, MTT; for Selectivity index MV4-11: IC50 of normal (BALB/3T3) vs. cancer cells (MV4-11)
Protocol: as §1, §2, §3

[1] = system: HDAC homologues (HDACs), HeLa cell extract; experiment: Fluorimetric HDACs inhibition kit (Histone Deacetylase Activity Assay, HeLa cell extract); settings: for HDAC activity at 2 µM [%]: remaining HDACs activity at 2 µM compound; for IC50: read-out: Inhibition of HDAC homologues (HDACs) IC50
Protocol: The HDACAA kit is based on a two-step enzymatic reaction. The substrate for the reaction is a substituted peptide with an acetylated lysine residue and a bound fluorescent group. The first step of the reaction is deacetylation of the acetylated lysine side chain by the HDAC containing sample (HeLa cell extract). The second step is the cleavage of the deacetylated substrate with the developer solution and the release of the free highly fluorescent group. […] The plate was incubated at 30 °C for 30 min. Next, 10 µL of Developer Solution was added to each well and incubated at room temperature for 10 min. The fluorescence was measured with the fluorimeter plate reader (SpectraMax iD3, Molecular Devices): excitation wavelength of 360 nm and emission wavelength of 460 nm. The following concentrations were used: 0.1, 0.5, 1, and 2 µM. Each compound in each concentration was tested in triplicate. All calculations were performed using Origin 9.0 software.

HDAC8 = biological target: T1, HDAC8 (Homo sapiens, UniProt Q9BY41); experiment: Histone Deacetylase 8 Activity Assay; format: biochemical; settings: read-out: Inhibition of HDAC8 activity IC50
T1 construct: purchased Sigma
T1 sequence (Q9BY41 1-377): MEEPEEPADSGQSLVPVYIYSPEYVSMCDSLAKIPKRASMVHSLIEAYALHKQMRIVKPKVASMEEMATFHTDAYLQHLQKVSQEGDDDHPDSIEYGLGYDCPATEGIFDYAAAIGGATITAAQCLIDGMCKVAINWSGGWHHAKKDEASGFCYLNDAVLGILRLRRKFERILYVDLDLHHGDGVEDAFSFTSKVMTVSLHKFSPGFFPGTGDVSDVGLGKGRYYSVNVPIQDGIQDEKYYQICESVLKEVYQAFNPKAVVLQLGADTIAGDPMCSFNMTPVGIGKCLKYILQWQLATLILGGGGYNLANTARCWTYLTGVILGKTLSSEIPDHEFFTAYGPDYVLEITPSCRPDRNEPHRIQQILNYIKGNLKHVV
Protocol: In order to measure histone deacetylase 8 activity, Histone Deacetylase 8 Activity Assay (Sigma) was used. The HDAC8 acts with the supplied Developer to deacetylate and then cleave the HDAC8 Substrate (R-H-K(Ac)-K(Ac)-AFC). The reaction reagents were added to the wells of a 96-well plate according to Table 7. […] The fluorescence was measured with the fluorimeter plate reader: excitation wave-length of 380 nm and emission wavelength of 500 nm. The following concentrations were used: 0.5, 1, 1.5, 2, 3, and 4 µM. Each compound in each concentration was tested in triplicate. All calculations were performed using Origin 9.0 software.

A549 cells = experiment: Cytotoxicity assay (SRB), 72 h; format: cell-based, human; settings: for IC50: Homo sapiens, A549, 72 h of treatment, SRB; for Selectivity index A549: IC50 of normal (BALB/3T3) vs. cancer cells (A549)
Protocol: as §1, §2
(§4) SRB: 50 µL 50% cold trichloroacetic acid (TCA, Merck) solution was added to each wells and incubated for 1 h at 4 °C. The plates were rinsed with distilled water, and after drying on a paper towel, 50 µL of a 0.1% (w/v) solution of sulforodamine B (Merck) in 1% acetic acid (POCH, Poland) was added and incubated for 30 min at room temperature. Subsequently, the plates were washed with 1% (v/v) acetic acid and after desiccation of excess acid, 150 µL of 10 mM TRIS (Merck) was added. After another 30 min of incubation at RT, the optical density of individual samples was read at 540 nm using a plate reader (Synergy H4 Hybrid Reader, BioTek).

MCF-7 cells = experiment: Cytotoxicity assay (SRB), 72 h; format: cell-based, human; settings: for IC50: Homo sapiens, MCF7, 72 h of treatment, SRB; for Selectivity index MCF-7: IC50 of normal (BALB/3T3) vs. cancer cells (MCF-7)
Protocol: as §1, §2, §4

BALB/3T3 cells = experiment: Cytotoxicity assay (SRB), 72 h; settings: Mus musculus, BALB/3T3, 72 h, read-out: IC50 BALB/3T3
Protocol: Then, the tested compounds were diluted in culture medium (RPMI1640 + OptiMEM) to reach the final concentrations. Then, cells were treated for 72 h with derivatives at concentrations of 50, 10, 2, 0.4, and 0.008 µM (100 μL of each concentration per well), or with culture medium alone as a cells control or medium control.

Structure (SMILES)	IC50 (Daudi cells) [µM]	IC50 (MV4-11 cells) [µM]	melting point [°C]	HDAC activity at 2 µM [%] [1] [%]	IC50 (HDAC8) [µM]	IC50 [1]	Selectivity index Daudi (Daudi cells)	Selectivity index MV4-11 (MV4-11 cells)	IC50 (A549 cells) [µM]	Selectivity index A549 (A549 cells)	IC50 (MCF-7 cells) [µM]	Selectivity index MCF-7 (MCF-7 cells)	IC50 (BALB/3T3 cells) [µM]
CN1C(=O)c2ccccc2N(CC(=O)NO)C(=O)c2ccccc21 [Compound 7a]	> 50	> 50	233 to 234	95.6 ± 1.4									
CN1C(=O)c2ccccc2N(CCC(=O)NO)C(=O)c2ccccc21 [Compound 7b]	> 50	> 50	105 to 106	84.1 ± 2.3									
CN1C(=O)c2ccccc2N(CCCC(=O)NO)C(=O)c2ccccc21 [Compound 7c]	> 50	> 50	190 to 191	75.4 ± 3.0									
CN1C(=O)c2ccccc2N(CCCCC(=O)NO)C(=O)c2ccccc21 [Compound 7d]	9.6 ± 2.1	7.58 ± 2.5	217 to 218	64.6 ± 3.6									
CN1C(=O)c2ccccc2N(CCCCCC(=O)NO)C(=O)c2ccccc21 [Compound 7e]	3.03 ± 0.55	2.33 ± 0.64	155 to 156	48.7 ± 1.0	5.67 ± 0.64	1.96 ± 0.105 µM							
CN1C(=O)c2ccccc2N(CCCCCCC(=O)NO)C(=O)c2ccccc21 [Compound 7f]	4.83 ± 1.96	4.45 ± 0.34	145 to 146	66.1 ± 4.1									
O=C(CN1C(=O)c2ccccc2C=Cc2ccccc21)NO [Compound 7g]	17.3 ± 6.2	34 ± 0.75	119 to 120	83.6 ± 4.2									
O=C(CCN1C(=O)c2ccccc2C=Cc2ccccc21)NO [Compound 7h]	32.6 ± 4.78	> 50	173 to 174	87.5 ± 1.2									
O=C(CCCN1C(=O)c2ccccc2C=Cc2ccccc21)NO [Compound 7i]	> 50	> 50	172 to 173	90.4 ± 1.6									
O=C(CCCCN1C(=O)c2ccccc2C=Cc2ccccc21)NO [Compound 7j]	3.47 ± 0.66	5.3 ± 1.36	175 to 176	63.3 ± 0.5									
O=C(CCCCCN1C(=O)c2ccccc2C=Cc2ccccc21)NO [Compound 7k]	0.46 ± 0.122	0.22 ± 0.021		15.7 ± 1.3	3.37 ± 0.33	0.183 ± 0.015 µM	2.78	5.82	1.27 ± 0.42	1.01	0.618 ± 0.095	2.07	1.28 ± 0.15
O=C(CCCCCCN1C(=O)c2ccccc2C=Cc2ccccc21)NO [Compound 7l]	1.44 ± 0.61	1.57 ± 0.12	151 to 152	44.7 ± 4.4		1.24 ± 0.155 µM							
CN1C(=O)c2ccccc2C(=O)N(CCCCCC(=O)NO)c2ccccc21 [Compound 7m]	5.09 ± 0.3	4.45 ± 0.96	95 to 96	72.7 ± 5.2									
CN1C(=O)c2cc(Cl)c(Cl)cc2C(=O)N(CCCCCC(=O)NO)c2ccccc21 [Compound 7n]	2.56 ± 0.98	2.85 ± 0.34	104 to 105	68.3 ± 2.8									
O=C(CCCCCN1C(=O)c2ccccc2C(=O)N(Cc2ccccc2)c2ccccc21)NO [Compound 7o]	3.52 ± 0.8	3.55 ± 0.75	172 to 173	64.5 ± 2.1									
O=C(CCCCCN1C(=O)c2ccccc2CCc2ccccc21)NO [Compound 7p]	0.318 ± 0.098	0.2 ± 0.073	164 to 165	21.5 ± 1.6	3.14 ± 0.42	0.309 ± 0.035 µM	3.27	5.20	1.21 ± 0.24	0.86	0.661 ± 0.12	1.57	1.04 ± 0.28
CN1C(=O)c2cc(Br)ccc2N(CCCCCC(=O)NO)C(=O)c2ccccc21 [Compound 7r]	0.785 ± 0.246	0.603 ± 0.132	76 to 77	31.5 ± 7.1		0.875 µM and 0.914 µM	4.29	5.59	4.61 ± 0.38	0.73	2.72 ± 0.57	1.24	3.37 ± 0.87
COc1cc2c(cc1OC)N(CCCCCC(=O)NO)C(=O)c1ccccc1N(C)C2=O [Compound 7s]	0.944 ± 0.167	0.692 ± 0.11	82 to 83	35.9 ± 0.8		0.914 µM and 0.875 µM	12.75	17.4	18 ± 5.77	0.67	4.24 ± 1.03	2.84	12 ± 5.9
CN1C(=O)c2cc3ccccc3cc2N(CCCCCC(=O)NO)C(=O)c2cc(Cl)ccc21 [Compound 7t]	0.137 ± 0.04	0.093 ± 0.009	161 to 162	19.9 ± 1.6	1.95 ± 0.17	0.266 ± 0.014 µM	5.04	7.42	1.05 ± 0.07	0.66	0.368 ± 0.015	1.88	0.69 ± 0.05
